# Laboratory results from patent US20240245660A1, “METHODS OF TREATING GASTROINTESTINAL STROMAL TUMORS” (Deciphera Pharmaceuticals, LLC, priority 2022, published 2024).
# Tests used:
# [1] = system: GISTs with KIT exon 11 primary mutations; settings: cited from earlier work
# [2] = system: advanced gastrointestinal stromal tumor (GIST); experiment: Multicenter, global, randomized, open-label, phase 3 study of ripretinib versus sunitinib with baseline ctDNA analysis (Examples 1 and 5); type: in vivo, human; settings: for forest plot of PFS by KIT exon 11 mutational subgroups from baseline ctDNA: FIG. 10; for forest plot of OS by KIT exon 11 mutational subgroups from baseline ctDNA / forest plot of OS by KIT mutational status from baseline ctDNA: Interim Analysis 2; for forest plot of OS by KIT exon 11 mutational subgroups from baseline ctDNA: FIG. 14; for forest plot of ORR by KIT exon 11 mutational subgroups from baseline ctDNA: FIG. 12; for forest plot of OS by KIT mutational status from baseline ctDNA: FIG. 13; for median PFS by IRR: KIT mutations at exon 17/18, excluding KIT exons 9, 13, and/or 14, FIG. 4; for forest plot of PFS by KIT mutational status from baseline ctDNA: FIG. 9; for Median Progression-Free Survival (mPFS): patients with mutations in KIT exon 11 and 17 or 18 only (ctDNA; excluding exons 9, 13, 14), by IRR, ripretinib 150 mg QD or sunitinib 50 mg QD; for forest plot of ORR by KIT mutational status from baseline ctDNA: FIG. 11; for OS HR, ripretinib versus sunitinib (Cox model) / PFS HR, ripretinib versus sunitinib (Cox model): sex, and race
# Protocol: This study is a multicenter, global, randomized, open-label, phase 3 study which enrolled adult patients with advanced gastrointestinal stromal tumor (GIST) who progressed on or had intolerance to imatinib. Randomization was 1:1 to ripretinib 150 mg once daily (QD) or sunitinib 50 mg once daily (QD) (4 weeks on/2 weeks off). Baseline peripheral whole blood was analyzed by Guardant360, a 74-gene circulating tumor DNA (ctDNA) next-generation sequencing (NGS)-based assay.
# Of the 453 patients in the overall intent-to-treat population (ITT), baseline ctDNA analysis was performed in 362 patients for whom evaluable samples were available. ctDNA was detected in 280 samples and KIT mutations were detected in 213 patients. Primary mutations in KIT were detected in exon 11 in 157 patients and in exon 9 in 36 patients. Common resistance mutations in KIT were in exons 17/18 in 89 patients and exons 13/14 in 81 patients. In patients with a KIT exon 11 primary mutation, 52 patients had mutations in exon 17 or 18 only, 41 had mutations in exon 13 or 14 only, and 22 patients had mutations in both exon 13 or 14 and exon 17 or 18. […] Efficacy in patients with detectable ctDNA in KIT exon 11 and the ITT populations was consistent with the primary analysis based on tumor data used for randomization. The subgroup safety profiles were consistent with the primary analysis.
# Cox proportional hazards analyses of PFS and OS were conducted to examine the interaction of treatment arm and mutational subgroup with or without adjustment for baseline characteristics in the study of Example 1.
# (§1) With respect to PFS, a Cox model with the interaction effect was used and the Bonferroni adjustment was applied. […] The treatment effect was nominally significant in the KIT exon 11+13/14 and KIT exon 11+17/18 populations before and after performing the Bonferroni correction. […] The results were robust when accounting for multiple treatment comparisons across mutational subgroups.
# as §1, with “OS,” for “PFS,”, “exon” for “exon 11+13/14 and KIT exon”, “population” for “populations”, “correction, but not in the KIT exon 11+13/14 population.” for “correction.”
# [3] = system: gastrointestinal stromal tumors (GIST); experiment: Bridging study of second-line ripretinib versus sunitinib in GIST patients in China (Example 3); type: in vivo, human; settings: patients in China with KIT exon 11 and exon 17/18 mutations per tumor tissue ITT population; ripretinib 150 mg once daily or sunitinib 50 mg once daily; FIG. 16
# Protocol: Results from a bridging study, with respect to the study of Example 1 above, of second-line administration of 150 mg once daily ripretinib, as compared to administration of 50 mg once daily sunitinib, in gastrointestinal stromal tumors (GIST) patients in China were obtained. In the study, 21 patients were determined to have mutations at KIT exon 11 and exon 17/18 per the tumor tissue ITT population. Progression-free survival (PFS) was determined with independent radiologic review using mRECIST. A Kaplan-Meier plot of PFS is provided as FIG. 16.
# [4] = KIT exon 11 and 17 or 18 only (ctDNA), Data cut 1
# [5] = KIT exon 11 and 17 or 18 only (ctDNA), Data cut 2
# [6] = KIT exon 11 and exon 17/18, excluding exons 9, 13, and/or 14, extended interim analysis (Interim Analysis 2), FIG. 6
# [7] = KIT exon 11 and exon 17/18, excluding exons 9, 13, and/or 14, interim analysis (Interim Analysis 1), FIG. 5
# [8] = KIT exon 17/18, excluding exons 9, 13, and/or 14, extended interim analysis (Interim Analysis 2), FIG. 8
# [9] = KIT exon 17/18, excluding exons 9, 13, and/or 14, interim analysis (Interim Analysis 1), FIG. 7
# [10] = with adjustment for age, Any KIT exon 9 (n = 36)
# [11] = with adjustment for age, KIT exon 11 + 13/14 + 17/18 only (n = 22)
# [12] = with adjustment for age, KIT exon 11 + 13/14 only (n = 41)
# [13] = with adjustment for age, KIT exon 11 + 17/18 only (n = 52)
# [14] = with adjustment for age, KIT exon 11 only (n = 41)
# [15] = with adjustment for age, Other KIT/PDGFRA (n = 29)
# [16] = without adjustment for age, Any KIT exon 9 (n = 36)
# [17] = without adjustment for age, KIT exon 11 + 13/14 + 17/18 only (n = 22)
# [18] = without adjustment for age, KIT exon 11 + 13/14 only (n = 41)
# [19] = without adjustment for age, KIT exon 11 + 17/18 only (n = 52)
# [20] = without adjustment for age, KIT exon 11 only (n = 41)
# [21] = without adjustment for age, Other KIT/PDGFRA (n = 29)
compound,measurement,setting,value
Cc1ccc(NC(=O)c2ccc(CN3CCN(C)CC3)cc2)cc1Nc1nccc(-c2cccnc2)n1 [imatinib],2-year relapse-free survival,[1]; adjuvant setting,~90%
same,median event-free survival,[1]; metastatic setting,under 2 years
CCn1c(=O)c(-c2cc(NC(=O)Nc3ccccc3)c(F)cc2Br)cc2cnc(NC)cc21 [ripretinib],forest plot of PFS by KIT exon 11 mutational subgroups from baseline ctDNA,"[2]; KIT exon 11 and 17 only, exon 11 and 18 only, any exons 11 and 17, any exon 11 and exon 17 or 18",favor ripretinib treatment
same,ORR,[2]; [4],44.4%
same,"ORR Response Difference (95% CI), ripretinib versus sunitinib",[2]; [4],"44.4% (23.0%, 62.7%)"
same,"PFS Hazard Ratio (95% CI), ripretinib versus sunitinib",[2]; [4],"0.22 (0.11, 0.44)"
same,ORR,"[2]; KIT exon 11 and 17 or 18 only (ctDNA), Data cut 1, listed as Ripretinib",44.4%
same,OS,[2]; [5],Not Estimable
same,"OS Hazard Ratio (95% CI), ripretinib versus sunitinib",[2]; [5],"0.34 (0.15, 0.76)"
same,forest plot of OS by KIT exon 11 mutational subgroups from baseline ctDNA,[2]; KIT exon 11 and 17 or KIT exon 11 and 18 mutations,favors ripretinib treatment
same,median OS,[2]; [6],not estimable
same,median OS,[2]; [7],not estimable
same,forest plot of ORR by KIT exon 11 mutational subgroups from baseline ctDNA,[2]; KIT exon 11 in combination with KIT exon 17 or 18 mutations,favors ripretinib treatment
same,"PFS, ORR and OS versus sunitinib",[2]; KIT exon 11 only primary mutation and exon 17 or 18 secondary mutations only,superior
same,median OS,[2]; [8],not evaluable
same,median OS,[2]; [9],not evaluable
same,forest plot of OS by KIT mutational status from baseline ctDNA,[2]; KIT exon 17 and 18 mutations,favors ripretinib treatment
same,median PFS by IRR,[2],13.8 months
same,forest plot of PFS by KIT mutational status from baseline ctDNA,[2]; mutations in KIT exons 17 and 18,favor ripretinib treatment
same,Median Progression-Free Survival (mPFS),[2]; Data cut 1,14.2 months
same,forest plot of ORR by KIT mutational status from baseline ctDNA,"[2]; populations with KIT exons 11, 17 or 18",favors ripretinib treatment
same,"OS HR, ripretinib versus sunitinib (Cox model)",[2]; [10],1.33
same,"PFS HR, ripretinib versus sunitinib (Cox model)",[2]; [10],3.07
same,"OS HR, ripretinib versus sunitinib (Cox model)",[2]; [11],2.09
same,"PFS HR, ripretinib versus sunitinib (Cox model)",[2]; [11],0.96
same,"OS HR, ripretinib versus sunitinib (Cox model)",[2]; [12],1.91
same,"PFS HR, ripretinib versus sunitinib (Cox model)",[2]; [12],3.27
same,"OS HR, ripretinib versus sunitinib (Cox model)",[2]; [13],0.34
same,"PFS HR, ripretinib versus sunitinib (Cox model)",[2]; [13],0.21
same,"OS HR, ripretinib versus sunitinib (Cox model)",[2]; [14],1.55
same,"PFS HR, ripretinib versus sunitinib (Cox model)",[2]; [14],2.54
same,"OS HR, ripretinib versus sunitinib (Cox model)",[2]; [15],0.63
same,"PFS HR, ripretinib versus sunitinib (Cox model)",[2]; [15],0.97
same,"OS HR, ripretinib versus sunitinib (Cox model)",[2]; [16],1.32
same,"PFS HR, ripretinib versus sunitinib (Cox model)",[2]; [16],2.88
same,"OS HR, ripretinib versus sunitinib (Cox model)",[2]; [17],2.15
same,"PFS HR, ripretinib versus sunitinib (Cox model)",[2]; [17],0.98
same,"OS HR, ripretinib versus sunitinib (Cox model)",[2]; [18],1.88
same,"PFS HR, ripretinib versus sunitinib (Cox model)",[2]; [18],3.41
same,"OS HR, ripretinib versus sunitinib (Cox model)",[2]; [19],0.32
same,"PFS HR, ripretinib versus sunitinib (Cox model)",[2]; [19],0.22
same,"OS HR, ripretinib versus sunitinib (Cox model)",[2]; [20],1.64
same,"PFS HR, ripretinib versus sunitinib (Cox model)",[2]; [20],2.53
same,"OS HR, ripretinib versus sunitinib (Cox model)",[2]; [21],0.78
same,"PFS HR, ripretinib versus sunitinib (Cox model)",[2]; [21],1.02
same,median PFS (independent radiologic review using mRECIST),[3],not reached
"CCN(CC)CCNC(=O)c1c(C)[nH]c(/C=C2\C(=O)Nc3ccc(F)cc32)c1C [sunitinib, reference compound]",forest plot of ORR by KIT mutational status from baseline ctDNA,[2]; KIT exon 9 mutations,favors sunitinib treatment
same,forest plot of OS by KIT exon 11 mutational subgroups from baseline ctDNA,[2]; KIT exon 11 and 13 or KIT exon 11 and 14 mutations,favors sunitinib treatment
same,ORR,[2]; [4],0%
same,ORR,"[2]; KIT exon 11 and 17 or 18 only (ctDNA), Data cut 1, listed as Sunitinib",0%
same,OS,[2]; [5],17.5 months
same,median OS,[2]; [6],17.5 months
same,median OS,[2]; [7],16.9 months
same,forest plot of ORR by KIT exon 11 mutational subgroups from baseline ctDNA,[2]; KIT exon 11 in combination with KIT exon 13 only,favors sunitinib treatment
same,forest plot of OS by KIT mutational status from baseline ctDNA,[2]; KIT exon 13 and 14 mutations,favors sunitinib treatment
same,median OS,[2]; [8],17.5 months
same,median OS,[2]; [9],17.0 months
same,median PFS by IRR,[2],2.8 months
same,forest plot of PFS by KIT exon 11 mutational subgroups from baseline ctDNA,[2]; exon 11 mutations in combination with exon 13 or exon 14 mutations,favor sunitinib
same,forest plot of PFS by KIT mutational status from baseline ctDNA,"[2]; mutations in KIT exons 9, 13, and 14",favor sunitinib
same,Median Progression-Free Survival (mPFS),[2]; Data cut 1,1.5 months
same,median PFS (independent radiologic review using mRECIST),[3],6.7 months
